The values that follow come from patent publication US20200393397A1, “DEVICE FOR PERFORMING ELECTRICAL MEASUREMENTS” (Mimetas B.V., priority 2018, published 2020).

Molecules are shown by their SMILES.

The test system of the assay is Caco-2 tubules. Nature of the assay: TEER measurement of Caco-2 tubules in 2-lane Organoplate during staurosporine exposure. Format: cell-based, human. As to the method:
Day 0: Collagen-1 gel was injected into one of the channels (gel channel) of a 2-lane Organoplate. After curing of the gel, Caco-2 cells (Sigma, human colon carcinoma cells) in culture medium were seeded in the other channel (perfusion channel) and allowed to proliferate. Culture medium was refreshed daily. […] Following this protocol, 40 chips, comprising a gel channel and a perfusion channel separated by a phaseguide, were seeded with Caco-2 cells, meaning that 40 tubules were grown simultaneously in a single 2-lane Organoplate. The method of culturing cells in this system is similar to the one described by Trietsch et al (Nature Communications, volume 8, Article number: 262(2017), doi:10.1038/s41467-017-00259-3).
A TEER measurement was performed daily at days 1 to 11. To this end, gold plated electrodes were inserted into the access wells of the gel and perfusion channel. For 5 to 10 seconds per chip, impedance spectra were recorded at frequencies ranging logarithmically from 10 Hz to 1 MHz.
At day 5, the 40 Caco-2 tubules were exposed to different concentrations of staurosporine (Sigma, S4400) for 12 hours.

Consider `CN[C@@H]1C[C@H]2O[C@@](C)([C@@H]1OC)n1c3ccccc3c3c4c(c5c6ccccc6n2c5c31)C(=O)NC4` [staurosporine], for which the “effect on the TEER” value (day 5, concentration of 47 nM, 12 hours exposure (FIG. 8)) is given as “an effect on the TEER can be observed”. The “effect on the TEER values” (day 5, exposure to different concentrations for 12 hours (FIG. 8)) is recorded as “concentration dependent effect”.
